Experimental data: PubChem BioAssay AID588396 (Broad Institute, 2011)
“And” between values parts separate entries of the source, which are not always exact repeats. Equal entries are not always repeated. Records with an inconclusive call do not appear. The source made the active and inactive calls.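 How the source made its calls: active means loss of yeast growth signal with half-maximal concentration no more than ten times the top tested dose, in every run; inconclusive means runs disagree, or a weak flat curve or poor fit; inactive means inactive in every run.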

System: not listed separately
Assay: growth inhibition of yeast expressing PfHsp90, dose response, antimalarial PfHsp90 inhibitor project, S. cerevisiae, BacTiter-Glo luminescence, dry powder samples (AID 588396)
Details: S. cerevisiae expressing PfHsp90, BacTiter-Glo ATP luminescence, 48 h; at 26 µM (top of the series)

Row | SMILES | activity change, negative = inhibition
1 | O=C1C(Cl)=C(NCCc2ccccc2)C(=O)c2ccccc21 | 1.42% (inactive)
2 | Cc1ccc(N2C(=O)C3C4C=CC(CNC(=S)Nc5cccc(Cl)c5)(O4)C3C2=O)cc1 (stereo not given) | -41.4% (inactive)
3 | COc1ccc2c(c1)[nH]c1c(C)nccc12 | 217% (inactive)
4 | Nc1c2ccccc2nc2ccccc12 (tested in a mixture with another compound) | 51.8% (inactive) and 38.4% (inactive)

System: S. cerevisiae expressing PfHsp90, BacTiter-Glo ATP luminescence, 48 h
Assay: as above
Details: not given

Row | SMILES | AC50 [µM]
5 | Cc1ccc(O)c(NC(=S)NC(=O)c2ccc(-c3ccc(Cl)cc3)o2)c1 | 6.37
6 | COc1ccc2c(c1)C=C(C(=O)NCc1ccc(Cl)cc1)CO2 | 8.85
7 | O=S(=O)(NC1CCCCCC1)c1ccc(Br)s1 | 1.34
8 | O=C(O)/C=C/c1cn(-c2ccccc2)nc1-c1cc2ccccc2o1 | 9.7
9 | O=C(CSCC(=O)N1CCCCC1)Nc1nc(-c2ccc(Cl)s2)cs1 | 14.5
10 | CCOc1cc(S(=O)(=O)NC2CCCCCC2)ccc1F | 7.34
11 | O=S(=O)(/C=C/c1ccccc1)NC1CCCCCCC1 | 6.52
12 | O=C1C(Cl)=C(Oc2ccccc2)C(=O)c2ccccc21 | 0.974
13 | O=S(=O)(NC1CC2CCC1C2)c1ccc(Cl)cc1 (stereo not given) | 3.25
14 | Cc1ccc(N2C(=O)C3C4C=CC(CNC(=S)Nc5ccc(F)cc5)(O4)C3C2=O)cc1 (stereo not given) | 26.3
15 | CCN(CC)c1ccc(/C=C2/SC(=O)N(C(C)C)C2=O)o1 | 12.2
